{"source": "paper PMC10475101", "about": "“Selective steroidogenic cytochrome P450 haem iron ligation by steroid-derived isonitriles” (Communications Chemistry, 2023)", "key": {"CYP3A4 [1]": {"biological_target": "T1, CYP3A4 (Homo sapiens, UniProt P08684)", "T1 construct": "made in house", "format": "biochemical", "settings": "concentrations up to 100 µM", "experimental": "(Adapted from Bart & Scott)[28]. Metabolic activity of CYP3A4 was evaluated by measuring metabolism of nifedipine to dehydronifedipine […], as detected by HPLC with UV detection at 254 nm. Reactions were carried out in amber microcentrifuge tubes (NFP is light sensitive) in a final volume of 150 μl. A 1:2 ratio of CYP3A4 to recombinant NADPH-cytochrome P450 reductase was mixed and incubated at room temperature for 20 min. This mixture was added to buffer (40 mM HEPES, 30 mM MgCl2, pH 7.4) containing 0.1 mM NFP and increasing concentrations of 1c (0–100 µM). Reaction vials were warmed to 37 °C for 3 min, then catalysis was initiated by adding NADPH to a final concentration of 1 mM. After 20 min, metabolism was quenched by adding 50 µL acetonitrile and placed on ice. […]\n187 a baseline absorbance reading from 400 to 500 nm using a UV-visible scanning spectrophotometer, of a 1cm […]\n(§1) 190 phosphate buffer (pH 7.4), 20% glycerol, and 100 mM sodium chloride). A small quantity of sodium dithionite\n191 (spatula tip-full) was then added to the cuvette, and the spectra were recorded periodically over time to […]\n195 Metabolic activity of CYP17A1 was evaluated by measuring 17α-hydroxylation of progesterone as detected […]\n212 dehydronifedipine, as detected by HPLC with UV detection at 254 nm. […]"}, "CYP3A4 [2]": {"biological_target": "T1, CYP3A4", "experimental": "Reduction of the 1-bound P450 complex was observed by taking a baseline absorbance reading from 400 to 500 nm using a UV-visible scanning spectrophotometer, of a 1 cm quartz cuvette containing 1 µM P450, with compound 1 at a saturating concentration (i.e., ≥ concentration needed to reach ΔAmax), in binding assay buffer (100 mM potassium phosphate buffer (pH 7.4), 20% glycerol, and 100 mM sodium chloride). A small quantity of sodium dithionite (spatula tip-full) was then added to the cuvette, and the spectra were recorded periodically over time to observe the formation of peaks indicating the reduction (~426 and 456 nm) and subsequent reoxidation (~435 nm) of the complex. The total time course for Fig. 6B was 103 min and 37 s. Numerical data used to generate graphs in Fig. 6 are provided in Supplementary Data 3 in Excel format.\n185 S2) Ligand binding and inhibition assays\n186 Reduction and reoxidation assays. Reduction of the isonitrile-bound P450 complex was observed by taking\n187 a baseline absorbance reading from 400 to 500 nm using a UV-visible scanning spectrophotometer, of a 1cm\n188 quartz cuvette containing 1 µM P450, with the selected isonitrile compound at a saturating concentration\n189 (i.e., ≥ concentration needed to reach ΔAmax), in the same buffer used for binding assays (100 mM potassium\nas §1\n191 (spatula tip-full) was then added to the cuvette, and the spectra were recorded periodically over time to\n192 observe the formation of peaks indicating the reduction (~426 and 456 nm) and subsequent reoxidation\n193 (~435 nm) of the complex. The total time course for Figure 6B was 103 minutes and 37 seconds. […]\n217 initiated by adding NADPH to a final concentration of 1 mM. After 20 minutes, metabolism was quenched\n218 by adding 50 µL acetonitrile and placed on ice. The reaction vials were centrifuged at 5000 xg for 5 minutes\n219 to pellet the precipitated protein, then the supernatant was injected onto a C18 column (Phenomenex, Luna,\n220 50 x 4.6 mm) for HPLC. Separation on HPLC was obtained using a mobile phase of 45%/55% water/methanol\n221 for 40 minutes. A standard curve of known product concentrations was used to convert the area under the\n222 curve to the amount of product produced.\n224 S3) Crystallization of 1-CYP17A1 complex and X-ray diffraction\n225 Protein Crystallization and Structure Determination. CYP17A1 was saturated with 3β-formyl-5α\n226 pregnanolone-20(R)-isonitrile (verified by 430 nm Soret peak) and prepared for crystallization via hanging"}, "[3]": {"settings": "CYP3A4/20-(R)-1 complex reduced by sodium dithionite"}}, "note": "Values joined by “and” are separate entries in the source; they are usually repeats but may differ in a detail not shown here. Equal entries are not always repeated."}
{"molecule": "[C-]#[N+][C@H](C)[C@H]1CC[C@H]2[C@@H]3CC[C@H]4C[C@@H](OC=O)CC[C@]4(C)[C@H]3CC[C@]12C", "note": "[Compound 1, 3β-formyl-5α-pregnanolone-(R)-20-isonitrile]", "values": [{"measurement": "inhibition of CYP3A4-catalyzed nifedipine oxidation", "setting": "CYP3A4 [1]", "result": "no inhibition"}, {"measurement": "Soret peak after reoxidation in air", "setting": "CYP3A4 [2]; CYP3A4/20-(R)-1, 103 min", "result": "~ 435 nm and 437.5 nm"}, {"measurement": "reoxidation of reduced complex in air", "setting": "CYP3A4 [2]; CYP3A4/20-(R)-1, 103 min", "result": "slowly re-oxidizes"}, {"measurement": "split Soret after reduction, higher-wavelength maximum", "setting": "CYP3A4 [2]; [3]", "result": 454, "unit": "nm"}, {"measurement": "split Soret after reduction, lower-wavelength maximum", "setting": "CYP3A4 [2]; [3]", "result": 428, "unit": "nm"}]}
